# Test: Nanoflow ESI (NanoMate-QTOF), RNLC-NSI-MS of drug and metabolites
# Conditions: Vicriviroc and its metabolites, relative LC-MS response, M35 = 100
# Description: For experiments described herein, high performance liquid chromatography (HPLC) separations of analytes were performed at room temperature using the first HPLC system referred to in FIG. 1 as “analytical HPLC”. […] The analytical HPLC column effluent was split (mixing tee 1 or T-1 in FIG. 1) so that 15-25% of the flow was directed to a second mixing tee (T-2 in FIG. 1) connected to the NSI source and 75-85% diverted to an auxiliary detector (e.g. a radioactivity detector (10-11) or a charged aerosol detector (12-13)). Separation of metabolites was achieved using the analytical HPLC system and programmed linear changes in mobile phase composition as shown in Table 1.
# A second HPLC pump, referred to in FIG. 1 as the “Response Normalizing HPLC”, was used to deliver an exactly inverse gradient. Inverse gradient was achieved by switching the aqueous mobile phase to pump B and the organic mobile phase to pump A and using the same gradient program as the one used in the analytical HPLC system. The flow rate of the Response Normalizing HPLC system was maintained between 0.1 and 0.2 mL/min. […] The “Response Normalizing Flow” was introduced into the NSI source via a second mixing tee (T-2). HPLC flows from the analytical HPLC and from the “Response Normalizing HPLC” were combined in the second mixing tee (T-2). The combined flow was delivered to the NSI (NanoMate, API, or any other ion sources) via a union (referred in FIG. 1 as “bulkhead”). For NSI experiments, the combined flow is further split using a mixing tee. The split ratio within the NSI source was manipulated by adjusting the various diameters and lengths of fused silica capillary tubing used to deliver the flow to MS and the fraction collector/waste. Approximately 1-5% of the combined flow was delivered to the NSI source for MS analysis.
structure (smiles),measurement,setting,value
COC[C@@H](c1ccc(C(F)(F)F)cc1)N1CCN(C2(C)CCN(C(=O)c3c(C)ncnc3C)CC2)C[C@@H]1C [Vicriviroc],Nanoflow ESI (NanoMate-QTOF) 0.15 mL/min Normalizing HPLC flow,0.15 mL/min normalizing flow,23.0
same,Nanoflow ESI (NanoMate-QTOF) 0.2 mL/min Normalizing HPLC flow,0.2 mL/min normalizing flow,14.3
same,Nanoflow ESI (NanoMate-QTOF) Without Normalizing HPLC flow,no normalizing flow,50.0

# — patent US20080173808A1, “PROCESS AND DEVICE FOR RESPONSE NORMALIZED LIQUID CHROMATOGRAPHY NANOSPRAY IONIZATION MASS SPECTROMETRY (RNLC-NSI-MS)” (Schering Corporation, priority 2007, published 2008)
